≈ marks a conversion by molar mass, not a printed value. Where two headings read alike, the source gives them in different places. Marks after values point to notes of the source that are not given here. Non-standard residues stand in square brackets, D forms with d. Residues, ends and D or L forms follow the SMILES beside them.
Tests used:
candida tropicalis = assay: microbe, parasite or virus in culture; format: cell-based; settings: for MIC: Candida tropicalis, read-out: Minimal inhibitory concentration
Protocol: (§1) • (1) Test strains: monilia albicans (candida albicans), candida glabrata, candida krusei, candida tropicalis, aspergillus fumigatus and flavous. Antimicrobial peptides PL-13 (SEQ ID NO: 1) under test are supplied by Jiangsu ProteLight Pharmaceutical & Biotechnology Co., LTD. […] Activation of bacterial strains is conducted at a humidity level of 60% and 25° C. (for aspergillus) or 37° C. (for candida). (2) 0.9% stroke-physiological saline solution comprising 0.5% Tween-80 is used to prepare bacterial suspension for experiment. Hemocytometer is utilized to adjust concentration of the bacterial suspension to 1-3×10^6 CFU/ml (0.5 McFarland units) to make stock solution in reserve at -20° C. During the sensitivity test, the RPMI-1640 liquid medium is diluted 1000 times to 1-3×10^3 CFU/ml. (3) The RPMI-1640 liquid is utilized as diluent to 10-fold dilute stock solution of peptides. […] The eleventh orifice is used as living control orifice, while the twelfth one as blank control. (4) The RPMI-1640 liquid is utilized as diluent to 10-fold dilute stock solution of FCZ and ICZ. […] Ditto for other operations.

aspergillus flavous = assay: microbe, parasite or virus in culture; format: cell-based; settings: for MIC: JLC 30784 aspergillus flavous, read-out: Minimal inhibitory concentration
Protocol: as §1

candida glabrata = assay: microbe, parasite or virus in culture; format: cell-based; settings: for MIC: Nakaseomyces glabratus, read-out: Minimal inhibitory concentration
Protocol: as §1

candida albicans = assay: microbe, parasite or virus in culture; format: cell-based; settings: for MIC: Candida albicans, read-out: Minimal inhibitory concentration
Protocol: as §1

aspergillus fumigatus = assay: microbe, parasite or virus in culture; format: cell-based; settings: for MIC: JLC 30506 aspergillus fumigatus, read-out: Minimal inhibitory concentration
Protocol: as §1

candida krusei = assay: microbe, parasite or virus in culture; format: cell-based; settings: for MIC: Pichia kudriavzevii, read-out: Minimal inhibitory concentration
Description: • (1) Test strains: monilia albicans (candida albicans), candida glabrata, candida krusei, candida tropicalis, aspergillus fumigatus and flavous. (2) Quality control strains: candida krusei JLC30366 (ATCC6258). Antimicrobial peptides PL-13 (SEQ ID NO: 1) under test are supplied by Jiangsu ProteLight Pharmaceutical & Biotechnology Co., LTD. […] (1) The bacterial strains which preserved on PDA slant are respectively inoculated onto PDA plate and slant medium. Activation of bacterial strains is conducted at a humidity level of 60% and 25° C. (for aspergillus) or 37° C. (for candida). (2) 0.9% stroke-physiological saline solution comprising 0.5% Tween-80 is used to prepare bacterial suspension for experiment. Hemocytometer is utilized to adjust concentration of the bacterial suspension to 1-3×10^6 CFU/ml (0.5 McFarland units) to make stock solution in reserve at -20° C. During the sensitivity test, the RPMI-1640 liquid medium is diluted 1000 times to 1-3×10^3 CFU/ml. (3) The RPMI-1640 liquid is utilized as diluent to 10-fold dilute stock solution of peptides. […] The eleventh orifice is used as living control orifice, while the twelfth one as blank control. (4) The RPMI-1640 liquid is utilized as diluent to 10-fold dilute stock solution of FCZ and ICZ. […] Ditto for other operations.

Enterococcus faecium = assay: microbe, parasite or virus in culture; format: cell-based
Protocol: (§2) The experimental strains are 37 standard strains preserved in lab and clinical isolated bacteria, including drug-resistant bacteria and quality-control bacteria selecting Staphylococcus aureus ATCC29213, Enterococcus faecalis ATCC29212, Escherichia coli ATCC25922, Pseudomonas aeruginosa ATCC27853 and klebsiella pneumoniae ATCC700603.
(§3) (1) Sensitivity test is conducted with two-fold agar dilution method and Denlay multipoint inoculator. Test bacteria are cultured with nutrient broth and brain heart infusion.
(§4) (2) The drug is double diluted into different concentration with MH broth after dissolved and then placed in the plate respectively.
(§5) (4) After solidification of the culture medium in the plate, test bacteria (10^4CFU/point) are inoculated by multipoint inoculator and cultured for 18 hours at constant 35° C. Then observe the results.

[1] = system: red cell suspension from healthy volunteers; assay: Hemolytic activity test; format: cell-based, human; settings: for Hemolytic activity, absorbancy (OD value) at 570 nm: 4 hours at 37° C., OD higher than 0.1 is hemolytic, n = 3
Protocol: (1) Samples are serial diluted with sterile PBS to 1000, 500, 250, 125, 64, 32, 16, 8, 4 μg/ml in turn and spread in 96-well plates, 100 μl per orifice.
(2) We use distilled water as positive control, sterile PBS as negative control and blank orifice with 200 μl PBS solution added. Each concentration above is made in triplicate.
(3) We take 3 ml whole blood from healthy volunteers and washed it with sterile PBS three times to prepare fresh 2% concentration red cell suspension. Then we added 100 μl red cell suspension into each orifice and made them cultured for 4 hours at 37° C. in the incubator. After centrifuged by plate-swashing centrifuge, the supernatant liquid is collected and measured absorbancy (OD value) at a wavelength of 570 nm. Then we compared the hemolytic efficiency of these concentrations.
(4) According to the documents standard, OD value which is higher than 0.1 is hemolytic concentration.

[2] = system: Acinetobacter calcoaceticus; assay: microbe, parasite or virus in culture; format: cell-based
Protocol: as §2, §3, §4
(§6) (3) After dissolved, MH agar culture medium are injected into the plate with drug quantitatively and mixed to make the final concentration of drug are 0.03, 0.06, 0.125, . . . , 128 μg/ml respectively.
as §5

[3] = system: Staphylococcus epidermidis; assay: microbe, parasite or virus in culture; format: cell-based
Protocol: as §2, §3, §4, §6, §5

Bacillus dysenteriae = assay: Therapeutic test of oral preparation on mice with systemic infection, survival time; format: in vivo, ICR mice; settings: 80 mg/kg gavage three times a day for seven days, n = 10
Protocol: (§7) There are 30 male and 30 female ICR mice with the weight ranging from 18 g to 22 g. […] With trinitrophenal marking method, all the mice are raised with ordinary animal feeds in the ordinary animal houses and they can drink water freely. Alternating of light and dark is conducted every 12 hours.
(§8) 2. Infected Strains: Escherichia and Bacillus dysenteriae
(§9) (1) The preparation of bacterial suspension is the same as above.
(§10) (2) The Escherichia suspension cultured overnight is diluted to 1×10^7CFU/ml. The Bacillus dysenteriae suspension cultured overnight is diluted to 1×10^5CFU/ml. They are all applied in reserve.
(§11) (3) Except the blank control group, every other mouse is injected with 0.2 ml Escherichia suspension with the concentration of 1×10^7CFU/ml or 0.2 ml Bacillus dysenteriae suspension with the concentration of 1×10^5CFU/ml intraperitoneally to make model.
(§12) (4) Administration: The drugs are administered according to mice′ weight right after the model is ready. All the groups excepting the blank and the infected negative control groups are administered by gavaging with different dosage of drugs three times a day successively for seven days, and they are observed for fourteen days.
(§13) (5) Observe death of the animals and record their survival time.

Escherichia = assay: as above; format: in vivo, ICR mice; settings: 80 mg/kg gavage three times a day for seven days, n = 10
Protocol: as §7, §8, §9, §10, §11, §12, §13

[4] = JLC 30883 aspergillus fumigatus

Structure (SMILES): OC(Cn1cncn1)(Cn1cncn1)c1ccc(F)cc1F [FCZ, Fluconazol, reference compound]
- MIC (candida tropicalis; JLC 31379 candida tropicalis): 0.5 µg/mL (≈ 1.63 µM)
- MIC (candida tropicalis; JLC 31384 candida tropicalis): 0.25 µg/mL (≈ 0.816 µM)
- MIC (aspergillus flavous): > 64 µg/mL
- Minimal inhibitory concentration (aspergillus flavous; JLC 40437 aspergillus flavous): >64 µg/mL
- MIC (candida glabrata; JLC 30367 candida glabrata): 2 µg/mL (≈ 6.53 µM)
- MIC (candida glabrata; JLC 31512 candida glabrata): 1 µg/mL (≈ 3.27 µM)
- MIC (candida albicans; JLC 33659 candida albicans): 0.25 µg/mL (≈ 0.816 µM)
- MIC (candida albicans; JLC 33660 candida albicans): 0.25 µg/mL (≈ 0.816 µM)
- MIC (aspergillus fumigatus): > 64 µg/mL
- Minimal inhibitory concentration (aspergillus fumigatus; [4]): >64 µg/mL
- MIC (candida krusei; JLC 30366 candida krusei): 16 µg/mL (≈ 52.2 µM)
- MIC (candida krusei; JLC 30383 candida krusei): 8 µg/mL (≈ 26.1 µM)

Structure (SMILES): CCC(C)n1ncn(-c2ccc(N3CCN(c4ccc(OCC5COC(Cn6cncn6)(c6ccc(Cl)cc6Cl)O5)cc4)CC3)cc2)c1=O (stereo not drawn) [ICZ, Itraconazole, reference compound]
- MIC (candida tropicalis; JLC 31379 candida tropicalis): 0.03 µg/mL (≈ 0.0425 µM)
- MIC (candida tropicalis; JLC 31384 candida tropicalis): 0.03 µg/mL (≈ 0.0425 µM)
- MIC (aspergillus flavous): 0.125 µg/mL (≈ 0.177 µM)
- Minimal inhibitory concentration (aspergillus flavous; JLC 40437 aspergillus flavous): 0.125 µg/mL (≈ 0.177 µM)
- MIC (candida glabrata; JLC 30367 candida glabrata): 0.0625 µg/mL (≈ 0.0886 µM)
- MIC (candida glabrata; JLC 31512 candida glabrata): 0.03 µg/mL (≈ 0.0425 µM)
- MIC (candida albicans; JLC 33659 candida albicans): 0.03 µg/mL (≈ 0.0425 µM)
- MIC (candida albicans; JLC 33660 candida albicans): 0.0625 µg/mL (≈ 0.0886 µM)
- MIC (aspergillus fumigatus): 0.125 µg/mL (≈ 0.177 µM)
- Minimal inhibitory concentration (aspergillus fumigatus; [4]): 0.125 µg/mL (≈ 0.177 µM)
- MIC (candida krusei; JLC 30366 candida krusei): 0.25 µg/mL (≈ 0.354 µM)
- MIC (candida krusei; JLC 30383 candida krusei): 0.25 µg/mL (≈ 0.354 µM)

Structure (SMILES): CC(=O)N[C@H](Cc1ccccc1)C(=O)N[C@H](CCCCN)C(=O)N[C@H](CCCCN)C(=O)N[C@H](CC(C)C)C(=O)N[C@H](CCCCN)C(=O)N[C@H](CCCCN)C(=O)N[C@H](CCCCN)C(=O)N[C@H](Cc1ccccc1)C(=O)N[C@H](CO)C(=O)N[C@H](CCCCN)C(=O)N[C@H](CC(C)C)C(=O)N[C@H](Cc1c[nH]c2ccccc12)C(=O)N[C@H](CC(N)=O)C(=O)N[C@H](Cc1c[nH]c2ccccc12)C(=O)N[C@H](CCCCN)C(N)=O [PL-34] (Ac-[dF][dK][dK][dL][dK][dK][dK][dF][dS][dK][dL][dW][dN][dW][dK]-NH2)
- MIC (Enterococcus faecium): 1.3 µM (≈ 2.67 µg/mL)
- Hemolytic activity, absorbancy (OD value) at 570 nm ([1]; peptide 7.8125 μg/ml): 0.032
- Hemolytic activity, absorbancy (OD value) at 570 nm ([1]; peptide 15.625 μg/ml): 0.041
- Hemolytic activity, absorbancy (OD value) at 570 nm ([1]; peptide 31.25 μg/ml): 0.054
- Hemolytic activity, absorbancy (OD value) at 570 nm ([1]; peptide 62.5 μg/ml): 0.061
- Hemolytic activity, absorbancy (OD value) at 570 nm ([1]; peptide 125 μg/ml): 0.073
- Hemolytic activity, absorbancy (OD value) at 570 nm ([1]; peptide 250 μg/ml): 0.087
- Hemolytic activity, absorbancy (OD value) at 570 nm ([1]; peptide 500 μg/ml): 0.135
- Hemolytic activity, absorbancy (OD value) at 570 nm ([1]; peptide 1000 μg/ml): 0.317
- hemolytic toxicity (in words) ([1]; summary of Table 9): little hemolytic toxicity
- Minimal inhibitory concentration (candida tropicalis): 4 µg/mL (≈ 1.95 µM)
- Minimal inhibitory concentration (aspergillus flavous): >64 µg/mL
- Minimal inhibitory concentration (candida glabrata): 32 µg/mL (≈ 15.6 µM)
- Minimal inhibitory concentration (candida albicans): 16 µg/mL (≈ 7.8 µM)
- Minimal inhibitory concentration (aspergillus fumigatus): >64 µg/mL
- MIC [2]: 1.3 µM (≈ 2.67 µg/mL)
- MIC ([3]; 08-17 (MSSE) Meticillin susceptible staphylococcus epidermidis): 1.3 µM (≈ 2.67 µg/mL)
- MIC ([3]; (MRSE) Methicillin-resistant Staphylococcus epidermidis ATCC12228): 1.3 µM (≈ 2.67 µg/mL)
- Minimal inhibitory concentration (candida krusei): 8 µg/mL (≈ 3.9 µM)

Structure (SMILES): CCS(=O)(=O)CCn1c([N+](=O)[O-])cnc1C [Tinidazole]
- Mean survival Time (Bacillus dysenteriae; observed fourteen days): 7.0* day
- Mortality of mice in different days after infection (Bacillus dysenteriae; day 4): 2
- Mortality of mice in different days after infection (Bacillus dysenteriae; day 5): 1
- Mortality of mice in different days after infection (Bacillus dysenteriae; day 6): 2
- Mortality of mice in different days after infection (Bacillus dysenteriae; day 7): 2
- Mortality of mice in different days after infection (Bacillus dysenteriae; day 8): 1
- Mortality of mice in different days after infection (Bacillus dysenteriae; day 9): 1
- Mean survival Time (Escherichia; observed fourteen days): 7.5* day
- Mortality of mice in different days after infection (Escherichia; day 4): 1
- Mortality of mice in different days after infection (Escherichia; day 5): 2
- Mortality of mice in different days after infection (Escherichia; day 6): 2
- Mortality of mice in different days after infection (Escherichia; day 7): 1
- Mortality of mice in different days after infection (Escherichia; day 8): 1
- Mortality of mice in different days after infection (Escherichia; day 9): 2
